Laboratory results taken from PubChem BioAssay (NCI).
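48-hour exposure; five concentrations; linearly interpolated endpoints. GI50: concentration for 50% inhibition of growth. TGI: concentration producing complete growth inhibition.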

How the values were obtained:
Test in all cases: inhibition of tumour cell growth, NCI panel, 48 h
[1] = system: NCI-H522 lung
[2] = system: DU-145 prostate
[3] = system: HCT-15 colon
[4] = system: T-47D breast
[5] = system: OVCAR-4 ovarian
[6] = system: UACC-257 melanoma
[7] = system: K-562 leukemia
[8] = system: LOX IMVI melanoma
[9] = system: SK-OV-3 ovarian
[10] = system: PC-3 prostate
[11] = system: HS 578T breast
[12] = system: SF-539 CNS
[13] = system: UO-31 renal
[14] = system: SK-MEL-28 melanoma
[15] = system: MALME-3M melanoma
[16] = system: SR leukemia
[17] = system: NCI-H23 lung
[18] = system: MDA-MB-231 breast
[19] = system: HOP-62 NSCLC
[20] = system: RXF 393 renal
[21] = system: MOLT-4 leukemia
[22] = system: A549 NSCLC
[23] = system: MCF7 breast
[24] = system: OVCAR-5 ovarian
[25] = system: HT29 colon
[26] = system: TK-10 renal
[27] = system: ACHN renal
[28] = system: NCI/ADR-RES ovarian
[29] = system: HCT-116 colon
[30] = system: SK-MEL-5 melanoma
[31] = system: BT-549 breast
[32] = system: M14 melanoma
[33] = system: COLO 205 colon
[34] = system: SNB-75 CNS
[35] = system: SN12C renal
[36] = system: CCRF-CEM leukemia
[37] = system: NCI-H226 lung
[38] = system: HCC-2998 colon
[39] = system: OVCAR-8 ovarian
[40] = system: 786-0 renal
[41] = system: U251 CNS
[42] = system: HOP-92 NSCLC
[43] = system: KM12 colon
[44] = system: IGROV1 ovarian
[45] = system: HL-60(TB) leukemia
[46] = system: NCI-H460 lung
[47] = system: SNB-19 CNS
[48] = system: SF-295 CNS
[49] = system: SW-620 colon
[50] = system: A498 renal
[51] = system: MDA-MB-435
[52] = system: CAKI-1 renal
[53] = system: SF-268 CNS
[54] = system: UACC-62 melanoma
[55] = system: SK-MEL-2 melanoma
[56] = system: RPMI-8226 leukemia
[57] = system: OVCAR-3 ovarian

COc1cccc(C2=C(c3cn(C)c4ccc(Cl)cc34)C(=O)NC2=O)c1 was tested, and the GI50 [1] was 5.48 µM, the TGI [1] was greater than 17.9 µM and the GI50 [2] was 10.9 µM. For the same compound, the TGI [2] was greater than 22.1 µM, the GI50 [3] was 6.4 µM and the TGI [3] was greater than 25 µM. It also gave a GI50 [4] of 4.19 µM, a TGI [4] of 17.4 µM and a GI50 [5] of 6.96 µM. For the same compound, the TGI [5] was greater than 25 µM, the GI50 [6] was 9.86 µM and the TGI [6] was greater than 21.5 µM. For the same compound, the GI50 [7] was 6.54 µM, the TGI [7] was greater than 19.8 µM and the GI50 [8] was 4.92 µM. It also gave a TGI [8] greater than 16.1 µM, a GI50 [9] of 7.29 µM and a TGI [9] greater than 22 µM. For the same compound, the GI50 [10] was 6.16 µM, the TGI [10] was greater than 19.6 µM and the GI50 [11] was 6.76 µM. The TGI [11] was greater than 25 µM, the GI50 [12] was 6.06 µM and the TGI [12] was greater than 15.9 µM. It also gave a GI50 [13] of 5.07 µM, a TGI [13] greater than 17.4 µM and a GI50 [14] of 7.87 µM. For the same compound, the TGI [14] was greater than 20.5 µM, the GI50 [15] was 13.9 µM and the TGI [15] was greater than 20 µM. For the same compound, the GI50 [16] was 5.77 µM, the TGI [16] was greater than 18.6 µM and the GI50 [17] was 7.15 µM. For the same compound, the TGI [17] was greater than 19.1 µM, the GI50 [18] was 8.3 µM and the TGI [18] was greater than 20.6 µM. For the same compound, the GI50 [19] was 7.22 µM, the TGI [19] was 21.4 µM and the GI50 [20] was 3.66 µM. The TGI [20] was 8.33 µM, the GI50 [21] was 5.14 µM and the TGI [21] was greater than 18.8 µM. For the same compound, the GI50 [22] was 6.84 µM, the TGI [22] was greater than 25 µM and the GI50 [23] was 2.85 µM. The TGI [23] was greater than 25 µM, the GI50 [24] was 15.3 µM and the TGI [24] was greater than 25 µM. For the same compound, the GI50 [25] was 4.14 µM, the TGI [25] was greater than 24.1 µM and the GI50 [26] was 10.4 µM. The TGI [26] was greater than 23.8 µM, the GI50 [27] was 6.65 µM and the TGI [27] was greater than 19.6 µM. It also gave a GI50 [28] of 6.13 µM, a TGI [28] of 19.8 µM and a GI50 [29] of 3.8 µM. It also gave a TGI [29] greater than 13.7 µM, a GI50 [30] of 3.63 µM and a TGI [30] of 8.35 µM. For the same compound, the GI50 [31] was 7.01 µM, the TGI [31] was greater than 19 µM and the GI50 [32] was 10.3 µM. For the same compound, the TGI [32] was greater than 25 µM, the GI50 [33] was 3.92 µM and the TGI [33] was 8.57 µM. It also gave a GI50 [34] of 3.1 µM, a TGI [34] greater than 25 µM and a GI50 [35] of 4.96 µM. It also gave a TGI [35] of 14.2 µM, a GI50 [36] of 4.39 µM and a TGI [36] of 15.7 µM. It also gave a GI50 [37] of 5.17 µM, a TGI [37] of 19.1 µM and a GI50 [38] of 9.02 µM. The TGI [38] was greater than 23 µM, the GI50 [39] was 6.61 µM and the TGI [39] was greater than 20.3 µM. For the same compound, the GI50 [40] was 6.5 µM, the TGI [40] was greater than 18.9 µM and the GI50 [41] was 5.94 µM. It also gave a TGI [41] greater than 16.8 µM, a GI50 [42] greater than 25 µM and a TGI [42] greater than 25 µM. The GI50 [43] was 4.95 µM, the TGI [43] was 11.4 µM and the GI50 [44] was 7.62 µM. For the same compound, the TGI [44] was greater than 17.5 µM, the GI50 [45] was 6.84 µM and the TGI [45] was 14.6 µM. It also gave a GI50 [46] of 7.57 µM, a TGI [46] greater than 19.1 µM and a GI50 [47] of 13.4 µM. For the same compound, the TGI [47] was greater than 25 µM, the GI50 [48] was 5.28 µM and the TGI [48] was greater than 15.1 µM. The GI50 [49] was 8.79 µM, the TGI [49] was greater than 25 µM and the GI50 [50] was 4.03 µM. For the same compound, the TGI [50] was 12.5 µM, the GI50 [51] was 6.48 µM and the TGI [51] was greater than 16.4 µM. For the same compound, the GI50 [52] was 4.87 µM, the TGI [52] was 16.8 µM and the GI50 [53] was 11.5 µM. It also gave a TGI [53] greater than 25 µM, a GI50 [54] of 5.67 µM and a TGI [54] of 12.8 µM. It also gave a GI50 [55] of 7.24 µM, a TGI [55] greater than 18 µM and a GI50 [56] of 5.9 µM. For the same compound, the TGI [56] was greater than 20.4 µM, the GI50 [57] was 7.47 µM and the TGI [57] was greater than 17.2 µM.
